Each block holds one compound with its values, some of them ahead of it.
Tests used:
[1] = tested on: hippocampal slices from 3-4 week-old Wistar rats; experiment: In vitro LTP analysis, theta burst stimulation, fEPSP slope recording; format: cell-based, rat
Description: The effect of long-term potentiation (LTP) which can be measured in vitro, is generally thought to correlate with memory. Stimulation of an afferent neuron or neuronal cell area results in membrane potentials of a downstream positioned neuron or neuronal cell area. Such membrane potentials are long-term potentiated at least over hours after stimulating the afferent neurons e.g. with a theta burst paradigm. Therefore, LTP is regarded as memory on cellular level. Electrophysiological LTP measurements on neurons incubated with a test compound in comparison to sham incubated neurons can be used to assess the compounds' potential to enhance memory (See generally Cooke and Bliss, Brain, 2006, 129 (1659), which is hereby incorporated by reference).
LTP is thought to be suitable as in vitro model for the assessment of memory function. Therefore, it allows analysis of test compounds, e.g. the compounds of the invention, e.g. 1-(8-cyclohexyl-5 isoquinoline-sulfonyl) 2-methyl-piperazine for memory enhancing potential. Experiments were done on hippocampal slices from 3-4 week-old Wistar rats. The rats were sacrificed by decapitation without prior anesthesia. […] A platinum/tungsten electrode was then lowered into the CA1 dendritic layer under visual control until stable amplitudes of the recorded fEPSP were achieved. […] Then, the test compound was washed in for a period of 30 min during which stimulation was continued at 0.05 Hz and fEPSPs were continuously recorded. […] All slices recorded simultaneously were treated with the same time schedule. From the recorded data, the amplitudes of the evoked fEPSP were automatically calculated by the recording software (Synchroslice data acquisition and analysis, LRE) as the negative peak of the postsynaptic signal with respect to baseline and plotted online. All recorded signals were digitally stored for later offline analysis, in particular for fEPSP negative slope calculation. From the stored single sweeps, the slope was calculated between 30% and 70% of the maximum fEPSP amplitude. […]

STK10 = biological target: T1, STK10 (Homo sapiens, UniProt O94804); experiment: KinomeScan active-site dependent competition binding assay; settings: 10 μM concentration
T1 construct: purchased Ambit
Description: (§1) Active-site dependent competition binding assays can be performed with hundreds of known kinases in parallel (Fabian et al., Nat Biotechnol. 2005, 23, 329; Karaman et al., Nat Biotechnol. 2008, 26, 127) in order to determine how compounds bind to both intended and unintended kinases. Such methods allow the assessment of the specificity of a kinase inhibitor.
(§2) Based on a competition binding assay that quantitatively measures the ability of a test compound to compete with an immobilized, active-site directed ligand it is possible to scan the competitive effect of the test compound for a broad variety of kinases in parallel (KinomeScan, Ambit, San Diego, Calif., USA; Fabian et al., Nat Biotechnol. 2005, 23, 329). Based on this analysis it is possible to assess the inhibitory specificity of a test compound. The assay was performed with 1-(8-cyclohexyl-5 isoquinoline-sulfonyl) 2-methyl-piperazine in 10 μM concentration. As result of the assay one obtains the percentage of competition of the active-site directed ligand for each of the over 400 kinases of the test due to the incubation with the test compounds. FIG. 3 lists the kinases ranked according to their binding to 1-(8-cyclohexyl-5 isoquinoline-sulfonyl) 2-methyl-piperazine (compound A). Strong binding (more than 50%) of 1-(8-cyclohexyl-5 isoquinoline-sulfonyl) 2-methyl-piperazine is found only for the kinases CSNK1E, CSNK1A1L, CSNK1D, MERTK, SLK, IRAK1, STK10, MAPK12, PHKG2, MAPK11, MET, AXL, STK32B, AURKC, CLK3, RPS6KA6, PDGFRB, KDR, CDK2.

PHKG2 = biological target: T2, PHKG2 (Homo sapiens, UniProt P15735); experiment: as above; settings: 10 μM concentration
T2 construct: purchased Ambit
T2 sequence (P15735 whole entry): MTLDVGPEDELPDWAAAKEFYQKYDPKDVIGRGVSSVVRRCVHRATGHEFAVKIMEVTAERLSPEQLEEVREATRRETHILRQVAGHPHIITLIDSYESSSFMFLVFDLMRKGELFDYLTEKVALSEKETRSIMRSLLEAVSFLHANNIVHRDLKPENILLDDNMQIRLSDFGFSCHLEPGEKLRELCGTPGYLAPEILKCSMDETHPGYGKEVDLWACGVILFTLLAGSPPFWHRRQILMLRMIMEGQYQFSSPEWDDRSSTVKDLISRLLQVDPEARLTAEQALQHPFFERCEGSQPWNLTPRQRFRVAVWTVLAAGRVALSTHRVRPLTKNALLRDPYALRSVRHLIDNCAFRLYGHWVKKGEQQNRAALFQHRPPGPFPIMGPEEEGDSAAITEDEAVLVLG
Description: as §1, §2

KDR = biological target: T3, KDR (Homo sapiens, UniProt P35968); experiment: as above; settings: 10 μM concentration
T3 construct: purchased Ambit
T3 sequence (P35968 20-1356): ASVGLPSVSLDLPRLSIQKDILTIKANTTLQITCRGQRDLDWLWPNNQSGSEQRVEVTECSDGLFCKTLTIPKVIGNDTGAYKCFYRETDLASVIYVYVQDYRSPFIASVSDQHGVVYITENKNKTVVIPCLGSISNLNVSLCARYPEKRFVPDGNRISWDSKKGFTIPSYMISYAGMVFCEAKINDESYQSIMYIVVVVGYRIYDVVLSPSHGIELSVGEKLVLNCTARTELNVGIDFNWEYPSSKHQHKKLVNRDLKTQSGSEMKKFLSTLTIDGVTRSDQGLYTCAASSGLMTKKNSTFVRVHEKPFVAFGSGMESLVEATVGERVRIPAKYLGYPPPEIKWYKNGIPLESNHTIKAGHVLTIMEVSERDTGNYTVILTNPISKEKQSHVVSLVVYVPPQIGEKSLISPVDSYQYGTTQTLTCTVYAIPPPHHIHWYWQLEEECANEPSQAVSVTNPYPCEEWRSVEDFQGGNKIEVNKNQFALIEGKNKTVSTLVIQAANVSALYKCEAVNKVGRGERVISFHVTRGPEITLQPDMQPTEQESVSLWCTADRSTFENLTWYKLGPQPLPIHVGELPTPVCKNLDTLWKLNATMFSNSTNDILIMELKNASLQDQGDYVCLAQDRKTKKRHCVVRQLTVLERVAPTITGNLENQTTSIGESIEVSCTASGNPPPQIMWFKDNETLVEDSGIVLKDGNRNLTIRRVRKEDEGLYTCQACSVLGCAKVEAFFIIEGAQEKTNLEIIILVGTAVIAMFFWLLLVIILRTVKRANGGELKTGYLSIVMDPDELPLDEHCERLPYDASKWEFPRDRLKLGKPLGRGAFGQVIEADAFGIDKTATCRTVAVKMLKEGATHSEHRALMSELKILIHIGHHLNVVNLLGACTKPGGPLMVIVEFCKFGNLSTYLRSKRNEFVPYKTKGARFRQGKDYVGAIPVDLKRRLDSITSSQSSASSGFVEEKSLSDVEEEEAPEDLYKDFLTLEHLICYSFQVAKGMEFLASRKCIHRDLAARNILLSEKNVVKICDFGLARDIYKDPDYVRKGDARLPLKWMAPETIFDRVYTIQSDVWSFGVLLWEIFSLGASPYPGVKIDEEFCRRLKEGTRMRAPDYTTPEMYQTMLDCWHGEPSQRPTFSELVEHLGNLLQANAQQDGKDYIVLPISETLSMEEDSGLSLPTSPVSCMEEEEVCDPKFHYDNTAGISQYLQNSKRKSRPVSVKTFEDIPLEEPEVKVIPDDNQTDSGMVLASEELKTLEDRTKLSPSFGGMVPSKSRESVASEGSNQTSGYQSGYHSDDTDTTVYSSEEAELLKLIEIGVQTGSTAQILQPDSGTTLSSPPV
Description: as §1, §2

CSNK1A1L = biological target: T4, CSNK1A1L (Homo sapiens, UniProt Q8N752); experiment: as above; settings: 10 μM concentration
T4 construct: purchased Ambit
T4 sequence (Q8N752 whole entry): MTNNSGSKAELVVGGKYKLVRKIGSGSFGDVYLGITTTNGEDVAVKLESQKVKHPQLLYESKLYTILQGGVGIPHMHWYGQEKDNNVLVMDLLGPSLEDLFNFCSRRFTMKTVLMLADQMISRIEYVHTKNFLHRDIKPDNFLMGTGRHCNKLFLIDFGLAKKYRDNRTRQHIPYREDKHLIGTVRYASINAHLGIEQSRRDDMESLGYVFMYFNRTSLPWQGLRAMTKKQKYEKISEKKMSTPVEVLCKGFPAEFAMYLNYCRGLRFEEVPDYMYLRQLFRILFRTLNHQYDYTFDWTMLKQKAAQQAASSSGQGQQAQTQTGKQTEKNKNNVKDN
Description: as §1, §2

MET = biological target: T5, MET (Homo sapiens, UniProt P08581); experiment: as above; settings: 10 μM concentration
T5 construct: purchased Ambit
Description: as §1, §2

MAPK12 = biological target: T6, MAPK12 (Homo sapiens, UniProt P53778); experiment: as above; settings: 10 μM concentration
T6 construct: purchased Ambit
T6 sequence (P53778 whole entry): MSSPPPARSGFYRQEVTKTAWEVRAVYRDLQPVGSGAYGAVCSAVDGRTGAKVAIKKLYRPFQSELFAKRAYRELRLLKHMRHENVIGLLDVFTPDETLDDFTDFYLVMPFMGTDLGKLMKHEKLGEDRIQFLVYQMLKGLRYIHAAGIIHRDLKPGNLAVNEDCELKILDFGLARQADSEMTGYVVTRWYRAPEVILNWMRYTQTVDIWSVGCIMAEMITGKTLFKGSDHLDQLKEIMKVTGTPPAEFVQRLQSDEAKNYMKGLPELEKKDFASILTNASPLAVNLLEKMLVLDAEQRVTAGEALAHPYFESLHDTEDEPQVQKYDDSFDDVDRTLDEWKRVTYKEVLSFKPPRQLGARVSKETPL
Description: as §1, §2

MERTK = biological target: T7, MERTK (Homo sapiens, UniProt Q12866); experiment: as above; settings: 10 μM concentration
T7 construct: purchased Ambit
Description: as §1, §2

STK32B = biological target: T8, STK32B (Homo sapiens, UniProt Q9NY57); experiment: as above; settings: 10 μM concentration
T8 construct: purchased Ambit
T8 sequence (Q9NY57 whole entry): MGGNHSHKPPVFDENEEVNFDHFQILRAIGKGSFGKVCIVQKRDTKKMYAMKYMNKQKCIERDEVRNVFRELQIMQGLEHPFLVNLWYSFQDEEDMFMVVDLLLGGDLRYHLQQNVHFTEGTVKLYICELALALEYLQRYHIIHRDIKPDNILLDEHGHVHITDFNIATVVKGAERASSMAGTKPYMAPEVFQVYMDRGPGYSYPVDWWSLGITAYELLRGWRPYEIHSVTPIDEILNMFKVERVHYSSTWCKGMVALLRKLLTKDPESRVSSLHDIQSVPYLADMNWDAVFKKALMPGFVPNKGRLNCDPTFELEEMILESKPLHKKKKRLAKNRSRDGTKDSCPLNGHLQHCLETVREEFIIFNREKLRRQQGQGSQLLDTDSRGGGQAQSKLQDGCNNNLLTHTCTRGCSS
Description: as §1, §2

CSNK1E = biological target: T9, CSNK1E (Homo sapiens, UniProt P49674); experiment: as above; settings: 10 μM concentration
T9 construct: purchased Ambit
Description: as §1, §2

SLK = biological target: T10, SLK (Homo sapiens, UniProt Q9H2G2); experiment: as above; settings: 10 μM concentration
T10 construct: purchased Ambit
Description: as §1, §2

MAPK11 = biological target: T11, MAPK11 (Homo sapiens, UniProt Q15759); experiment: as above; settings: 10 μM concentration
T11 construct: purchased Ambit
Description: as §1, §2

CSNK1D = biological target: T12, CSNK1D (Homo sapiens, UniProt P48730); experiment: as above; settings: 10 μM concentration
T12 construct: purchased Ambit
Description: as §1, §2

PDGFRB = biological target: T13, PDGFRB (Homo sapiens, UniProt P09619); experiment: as above; settings: 10 μM concentration
T13 construct: purchased Ambit
Description: as §1, §2

CLK3 = biological target: T14, CLK3 (Homo sapiens, UniProt P49761); experiment: as above; settings: 10 μM concentration
T14 construct: purchased Ambit
T14 sequence (P49761 whole entry): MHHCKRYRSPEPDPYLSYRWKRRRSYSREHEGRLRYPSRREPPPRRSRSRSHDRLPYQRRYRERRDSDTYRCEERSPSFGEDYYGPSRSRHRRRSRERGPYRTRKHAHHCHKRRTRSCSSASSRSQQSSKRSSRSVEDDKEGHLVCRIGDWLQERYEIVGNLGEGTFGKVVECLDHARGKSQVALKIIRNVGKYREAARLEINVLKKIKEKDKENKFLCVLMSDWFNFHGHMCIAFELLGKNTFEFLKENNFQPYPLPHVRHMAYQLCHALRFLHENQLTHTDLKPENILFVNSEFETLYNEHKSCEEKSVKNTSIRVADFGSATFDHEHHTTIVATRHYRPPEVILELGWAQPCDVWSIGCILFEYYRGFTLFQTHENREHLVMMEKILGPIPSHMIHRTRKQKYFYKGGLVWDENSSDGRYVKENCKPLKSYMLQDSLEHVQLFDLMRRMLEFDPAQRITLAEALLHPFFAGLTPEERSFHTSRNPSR
Description: as §1, §2

RPS6KA6 = biological target: T15, RPS6KA6 (Homo sapiens, UniProt Q9UK32); experiment: as above; settings: 10 μM concentration
T15 construct: purchased Ambit
T15 sequence (Q9UK32 whole entry): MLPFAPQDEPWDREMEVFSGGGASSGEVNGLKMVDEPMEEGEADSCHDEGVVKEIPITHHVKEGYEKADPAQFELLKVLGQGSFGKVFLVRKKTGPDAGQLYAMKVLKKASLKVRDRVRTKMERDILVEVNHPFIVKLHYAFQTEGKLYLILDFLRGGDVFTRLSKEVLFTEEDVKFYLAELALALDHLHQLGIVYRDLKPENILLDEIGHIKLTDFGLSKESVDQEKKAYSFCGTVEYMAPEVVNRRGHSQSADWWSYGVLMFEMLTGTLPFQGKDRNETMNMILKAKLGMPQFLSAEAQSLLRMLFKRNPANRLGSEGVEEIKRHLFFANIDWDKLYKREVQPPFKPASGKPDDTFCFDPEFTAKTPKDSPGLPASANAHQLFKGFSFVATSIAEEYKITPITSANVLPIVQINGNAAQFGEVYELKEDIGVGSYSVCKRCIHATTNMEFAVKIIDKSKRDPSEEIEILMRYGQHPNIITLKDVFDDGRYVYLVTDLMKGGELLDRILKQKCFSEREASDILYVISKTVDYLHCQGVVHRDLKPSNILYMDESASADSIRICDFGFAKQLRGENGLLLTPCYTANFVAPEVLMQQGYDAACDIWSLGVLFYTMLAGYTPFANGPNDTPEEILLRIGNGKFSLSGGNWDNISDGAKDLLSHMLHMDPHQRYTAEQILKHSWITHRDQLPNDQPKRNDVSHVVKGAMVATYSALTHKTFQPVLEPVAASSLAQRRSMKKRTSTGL
Description: as §1, §2

CDK2 = biological target: T16, CDK2 (Homo sapiens, UniProt P24941); experiment: as above; settings: 10 μM concentration
T16 construct: purchased Ambit
Description: as §1, §2

IRAK1 = biological target: T17, IRAK1 (Homo sapiens, UniProt P51617); experiment: as above; settings: 10 μM concentration
T17 construct: purchased Ambit
Description: as §1, §2

AURKC = biological target: T18, AURKC (Homo sapiens, UniProt Q9UQB9); experiment: as above; settings: 10 μM concentration
T18 construct: purchased Ambit
Description: as §1, §2

AXL = biological target: T19, AXL (Homo sapiens, UniProt P30530); experiment: as above; settings: 10 μM concentration
T19 construct: purchased Ambit
T19 sequence (P30530 26-894): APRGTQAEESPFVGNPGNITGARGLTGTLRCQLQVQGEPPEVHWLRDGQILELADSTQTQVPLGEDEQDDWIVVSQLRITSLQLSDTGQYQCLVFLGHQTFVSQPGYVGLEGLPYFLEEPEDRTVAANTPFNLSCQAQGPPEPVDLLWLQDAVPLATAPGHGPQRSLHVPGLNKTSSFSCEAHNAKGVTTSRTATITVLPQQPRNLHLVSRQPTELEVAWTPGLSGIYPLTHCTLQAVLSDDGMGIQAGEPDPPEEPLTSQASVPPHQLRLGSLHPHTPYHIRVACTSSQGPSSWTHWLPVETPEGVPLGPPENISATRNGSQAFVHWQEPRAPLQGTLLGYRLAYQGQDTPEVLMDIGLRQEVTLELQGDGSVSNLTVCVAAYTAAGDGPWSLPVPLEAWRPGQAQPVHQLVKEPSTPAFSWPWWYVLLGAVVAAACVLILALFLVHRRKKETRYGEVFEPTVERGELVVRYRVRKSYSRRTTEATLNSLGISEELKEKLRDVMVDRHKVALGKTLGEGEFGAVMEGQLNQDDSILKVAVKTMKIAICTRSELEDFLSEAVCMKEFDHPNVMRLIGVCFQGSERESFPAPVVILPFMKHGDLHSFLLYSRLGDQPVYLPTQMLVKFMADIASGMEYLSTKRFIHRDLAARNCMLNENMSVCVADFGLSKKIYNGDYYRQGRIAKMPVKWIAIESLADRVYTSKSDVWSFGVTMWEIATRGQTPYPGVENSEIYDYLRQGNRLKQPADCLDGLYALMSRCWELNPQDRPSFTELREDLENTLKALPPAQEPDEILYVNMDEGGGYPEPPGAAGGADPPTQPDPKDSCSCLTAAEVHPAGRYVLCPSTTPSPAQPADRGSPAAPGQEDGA
Description: as §1, §2

over 400 kinases = experiment: Kinase specificity analysis (KinomeScan panel); settings: 10 μM concentration; strong binding (more than 50%) for 19 kinases only
Description: as §1
as §2, with “Strong binding (more than 50%) of 1-(8-cyclohexyl-5 isoquinoline-sulfonyl) 2-methyl-piperazine is found only for the kinases CSNK1E, CSNK1A1L, CSNK1D, MERTK, SLK, IRAK1, STK10, MAPK12, PHKG2, MAPK11, MET, AXL, STK32B, AURKC, CLK3, RPS6KA6, PDGFRB, KDR, CDK2.” left out

[2] = tested on: undifferentiated PC12 cells; settings: Zhang et al., Cell Mol Biol Lett., 2006; cited from earlier work

- binding (percentage of competition of the active-site directed ligand) (STK10): more than 50%
- binding (percentage of competition of the active-site directed ligand) (PHKG2): more than 50%
- binding (percentage of competition of the active-site directed ligand) (KDR): more than 50%
- binding (percentage of competition of the active-site directed ligand) (CSNK1A1L): more than 50%
- binding (percentage of competition of the active-site directed ligand) (MET): more than 50%
- binding (percentage of competition of the active-site directed ligand) (MAPK12): more than 50%
- binding (percentage of competition of the active-site directed ligand) (MERTK): more than 50%
- binding (percentage of competition of the active-site directed ligand) (STK32B): more than 50%
- binding (percentage of competition of the active-site directed ligand) (CSNK1E): more than 50%
- binding (percentage of competition of the active-site directed ligand) (SLK): more than 50%
- binding (percentage of competition of the active-site directed ligand) (MAPK11): more than 50%
- binding (percentage of competition of the active-site directed ligand) (CSNK1D): more than 50%
- binding (percentage of competition of the active-site directed ligand) (PDGFRB): more than 50%
- binding (percentage of competition of the active-site directed ligand) (CLK3): more than 50%
- binding (percentage of competition of the active-site directed ligand) (RPS6KA6): more than 50%
- binding (percentage of competition of the active-site directed ligand) (CDK2): more than 50%
- binding (percentage of competition of the active-site directed ligand) (IRAK1): more than 50%
- binding (percentage of competition of the active-site directed ligand) (AURKC): more than 50%
- binding (percentage of competition of the active-site directed ligand) (AXL): more than 50%
- inhibitory specificity across the kinase panel (over 400 kinases): very selective kinase inhibitor
Structure (SMILES): CC1CNCCN1S(=O)(=O)c1ccc(C2CCCCC2)c2cnccc12 (stereo not drawn) [1-(8-cyclohexyl-5 isoquinoline-sulfonyl) 2-methyl-piperazine]
- increase in EPSP slopes when the compound is removed ([1]; 100 μM concentration): most obvious and very strong
- LTP induction (fEPSP slope) ([1]; compound washed in at increasing concentrations (1 μM, 10 μM and 100 μM), control slices about 140% of pre-stimulus levels): complete block of LTP-induction
- EPSP slopes when the compound is removed ([1]; wash-out 30 min after LTP induction, 1 μM, 10 μM and 100 μM): increase in EPSP slopes

Structure (SMILES): O=S(=O)(c1cccc2cnccc12)N1CCCNCC1 [Fasudil]
- neurite outgrowth [2]: increase neurite outgrowth
